# Assay results published in EP0212822A1, “A composition containing a plant growth regulator and an alkanol and a method of using the same” (ICI AMERICAS INC., priority 1985, dated 1987).
# “Also recorded” adds a separate entry of the source.
# Tests used:
# Vicia faba (Broadbean) = experiment: Stem injection with hypodermic syringe, growth as % of control; format: in vivo; details: 0.1 ml injected, averaged over four replications
# Method: 10 grams of PGR were dissolved in 1 liter of solvent at room temperature and stirred until the solution was clean, approximately 20 minutes. 0.1 ml of the solution was injected, […] above the soil level, in Vicia faba (Broadbean) with a hypodermic syringe.
# [1] = system: Liquidambar styraciflua (Sweetgum); experiment: Trunk injection of PGR in ethanol or methanol, ratings; format: in vivo
# Method: The examples which follow exemplify the improvements obtained by this invention. However, these examples are not intended to limit the scope of the invention. In Examples 1-41, the subject trees were injected at a distance approximately one foot from the soil line by drilling 7/32 inch diameter holes to a 2 inch depth at a 30-45° angle tangential to the trunk with a pressure injector (150 psi) purchased from the Asplundh Tree Expert Co., Company No. 346-3502. The results are expressed in terms of Retardation and Uniformity Ratings. The Retardation rating scale is as follows: • 0 = no retardataion • 1 = 1-20% retardation • 2 = 21-40% retardation • 3 = 41-60% retardation • 4 = 61-80% retardation • 5 = 81-100% retardation
# The Uniformity Rating is a measure of the consistency of response to the treatment between different branches of the tree. The Uniformity scale employed is as follows: • 0 = no effect from PGR • 1 = poor • 2 = fair • 3 = acceptable • 4 = very good • 5 = excellent
# 20 grams of PGR were dissolved in 1 liter of solvent at room temperature and stirred until the solution was clear, approximately 20 minutes. The solution was injected into the trunk of Liquidambar styraciflua (Sweetgum).
# [2] = Adsorption of tracer dyes to sawdust; format: physicochemical, Birch and Ash
# Method: 0.1 g of methylene blue and 0.1 g of acid fuschin were each dissolved in 1 liter of methanol (Me), […] methanol/water (Me/Wa) and water (Wa). 2 g (fresh weight) of sawdust taken from the active conductive tissues of Birch and Ash were combined with 20 ml of solution. The dye solutions were shaken overnight. The supernatant was decanted and the quantity of dye remaining in solution estimated by spectroscopy.
# [3] = 14 days, 10 grams of PGR in 1 liter Ethanol
# [4] = 14 days, 10 grams of PGR in 1 liter Methanol
# [5] = 21 days, 10 grams of PGR in 1 liter Ethanol
# [6] = 21 days, 10 grams of PGR in 1 liter Methanol
# [7] = week 2, 20 grams of PGR in 1 liter Ethanol
# [8] = week 2, 20 grams of PGR in 1 liter Methanol
# [9] = week 6, 20 grams of PGR in 1 liter Ethanol
# [10] = week 6, 20 grams of PGR in 1 liter Methanol
SMILES,Growth (% Control) At Indicated Days After Treatment (Vicia faba (Broadbean); [3]) [% Control],Growth (% Control) At Indicated Days After Treatment (Vicia faba (Broadbean); [4]) [% Control],Growth (% Control) At Indicated Days After Treatment (Vicia faba (Broadbean); [5]) [% Control],Growth (% Control) At Indicated Days After Treatment (Vicia faba (Broadbean); [6]) [% Control],"Retardation/ Uniformity Ratings at Indicated Week After Treatment [1, 7]","Retardation/ Uniformity Ratings at Indicated Week After Treatment [1, 8]","Retardation/ Uniformity Ratings at Indicated Week After Treatment [1, 9]","Retardation/ Uniformity Ratings at Indicated Week After Treatment [1, 10]",binding of dye to wood ([2]; either solvent (water and methanol)),binding of dye to wood ([2]; methanol as solvent),"binding of dye to wood ([2]; methanol as solvent, listed as Methylene blue)",binding of dye to wood ([2]; water as solvent),"binding of dye to wood ([2]; water as solvent, listed as Methylene blue)"
CC(C)(C)C(O)C(Cc1ccc(Cl)cc1)n1cncn1 (stereo not drawn) [PGR-1],13,12,18,17,1 (1 = 1-20% retardation),1 (1 = 1-20% retardation),3 (3 = 41-60% retardation),4 (4 = 61-80% retardation),,,,,
CC(C)C(O)(c1ccc(OC(F)(F)F)cc1)c1cncnc1 (stereo not drawn) [PGR-2],6,10,7,10,1 (1 = 1-20% retardation),1 (1 = 1-20% retardation),3 (3 = 41-60% retardation),3 (3 = 41-60% retardation),,,,,
CC1=CC(=C(c2ccc(N)c(S(=O)(=O)O)c2)c2ccc(N)c(S(=O)(=O)O)c2)C=C(S(=O)(=O)O)C1=N [acid fuschin],,,,,,,,,binds only partially; also recorded: binds weakly,,,,
CN(C)c1ccc2nc3ccc(=[N+](C)C)cc-3sc2c1 [methylene blue],,,,,,,,,,binds weakly,weakly,binding almost completely,binds strongly
